US5488037A, “Antithrombotic agents” (Eli Lilly and Company, priority 1994, dated 1996)

What was measured:
[1] = Index of bioavailability: plasma thrombin time (TT) time course after i.v. bolus and oral treatment of rats; type: in vivo, rat; conditions: dose-adjusted AUC of plasma TT, p.o. (fasted conscious rats) relative to i.v. bolus (anesthetized rats)
Source text: Assays are done in duplicate and averaged.
Each sample population represents alternating sequential time points.

[2] = target: human thrombin (Homo sapiens, UniProt P00734); assay: Inhibition of the amidase activity of human thrombin (chromogenic substrate, Kass); type: biochemical; conditions: apparent association constant, mean over a range of test compound concentrations; purified human thrombin, substrate N-benzoyl-Phe-Val-Arg-p-nitroanilide, pH 7.4
Description: The assay is carried out by mixing 50 μl buffer (0.03M Tris, 0.15M NaCl, pH 7.4) with 25 μl of human thrombin solution (purified human thrombin, Enzyme Research Laboratories, South Bend, Ind., at 8 NIH units/ml) and 25 μl of test compound in a solvent (50% aqueous methanol (v:v)). Then 150 μl of an aqueous solution of the chromogenic substrate (at 0.25 mg/ml) are added and the rates of hydrolysis of the substrate are measured by monitoring the reactions at 405 nm for the release of p-nitroaniline. Standard curves are constructed by plotting free thrombin concentration against hydrolysis rate. The hydrolysis rates observed with test compounds are then converted to "free thrombin" values in the respective assays by use of the standard curves. The bound thrombin (bound to test compound) is calculated by subtracting the amount of free thrombin observed in each assay from the known initial amount of thrombin used in the assay. The amount of free inhibitor in each assay is calculated by subtracting the number of moles of bound thrombin from the number of moles of added inhibitor (test compound).
The Kass value is the hypothetical equilibrium constant for the reaction between thrombin and the test compound (I). [drawing 45]
Kass is calculated for a range of concentrations of test compounds and the mean value reported in units of liter per mole.

| Compound | Index of Bioavailability, Percent Relative Activity [1] | Human Thrombin Inhibition Levels, Kass × 10^6 (l/mole) [2] |
| --- | --- | --- |
| CNC(CC(=O)N1CCC[C@H]1C(=O)N[C@H](C=O)CCCNC(=N)N)c1ccccc1.Cl.Cl.O.O (stereo partly drawn) [Example 1, N-methyl-3-amino-3-phenylpropionyl-L-Prolinyl-L-Arginine Aldehyde Dihydrochloride Dihydrate] | 28% | 70 × 10^6 l/mole |
| CNC(CC(=O)N1CCC[C@H]1C(=O)N[C@H](C=O)CCCNC(=N)N)C1CCCCC1.CNC(CC(=O)N1CCC[C@H]1C(=O)N[C@H](C=O)CCCNC(=N)N)C1CCCCC1.Cl.Cl.Cl.Cl.O (stereo partly drawn) [Example 2, N-methyl-3-amino-3-cyclohexyl propionyl-L-Pro-L-Arg aldehyde dihydrochloride hemihydrate] | 19% | 85 × 10^6 l/mole |
| CNCC(Cc1ccccc1)C(=O)N1CCC[C@H]1C(=O)N[C@H](C=O)CCCNC(=N)N.Cl.Cl.O (stereo partly drawn) [Example 3, N-Methyl-3-amino-2-benzylpropionyl-L-Pro-L-Arg Aldehyde Dihydrochloride Monohydrate] | 8% | 12 × 10^6 l/mole |
| Cl.Cl.N=C(N)NCCC[C@@H](C=O)NC(=O)[C@@H]1CCCN1C(=O)CN1CCCCC1.O [Example 4, 2-(2-Piperidino)acetyl-L-Pro-L-Arginine Aldehyde Dihydrochloride Monohydrate] | – | 1 × 10^6 l/mole |
| Cl.Cl.N=C(N)NCCC[C@@H](C=O)NC(=O)[C@@H]1CCCN1C(=O)C1CCCNC1.O (stereo partly drawn) [Example 5, 3-piperidinocarbonyl-L-Pro-L-Arginine Aldehyde Dihydrochloride Monohydrate] | – | 2 × 10^6 l/mole |
| Cl.Cl.N=C(N)NCCC[C@@H](C=O)NC(=O)[C@@H]1CCCN1C(=O)C1CNC2CCCCC21.O (stereo partly drawn) [Example 6, 3-perhydroindolylcarbonyl-L-Pro-L-Arginine Aldehyde Dihydrochloride Monohydrate] | – | 11 × 10^6 l/mole |
| CNC1CCCCC1C(=O)N1CCC[C@H]1C(=O)N[C@H](C=O)CCCNC(=N)N.Cl.Cl (stereo partly drawn) [Example 7, 2-(N-methyl)aminocyclohexyl-carbonyl-L-Pro-L-Arginine Aldehyde Dihydrochloride] | – | 18.4 × 10^6 l/mole |
| Cl.Cl.Cl.N=C(N)NCCC[C@@H](C=O)NC(=O)[C@@H]1CCCN1C(=O)C1CCCCC1N.O (stereo partly drawn) [Example 8, 2-aminocyclohexylcarbonyl-L-Pro-L-Arginine Aldehyde Trihydrochloride Monohydrate] | 15% | 39 × 10^6 l/mole |
